Laboratory results reported in PMC5384220 (Nature Communications, 2017).

Target: T1, full-length KDM4A (residues 1-1,064) (Homo sapiens, UniProt O75164)
T1 construct: full-length KDM4A (residues 1–1,064) purified from HEK293T cells; made in house; host or cells: HEK293T (transient transfection, anti-FLAG M2 immunoprecipitation)
T1 sequence (O75164 1-1064): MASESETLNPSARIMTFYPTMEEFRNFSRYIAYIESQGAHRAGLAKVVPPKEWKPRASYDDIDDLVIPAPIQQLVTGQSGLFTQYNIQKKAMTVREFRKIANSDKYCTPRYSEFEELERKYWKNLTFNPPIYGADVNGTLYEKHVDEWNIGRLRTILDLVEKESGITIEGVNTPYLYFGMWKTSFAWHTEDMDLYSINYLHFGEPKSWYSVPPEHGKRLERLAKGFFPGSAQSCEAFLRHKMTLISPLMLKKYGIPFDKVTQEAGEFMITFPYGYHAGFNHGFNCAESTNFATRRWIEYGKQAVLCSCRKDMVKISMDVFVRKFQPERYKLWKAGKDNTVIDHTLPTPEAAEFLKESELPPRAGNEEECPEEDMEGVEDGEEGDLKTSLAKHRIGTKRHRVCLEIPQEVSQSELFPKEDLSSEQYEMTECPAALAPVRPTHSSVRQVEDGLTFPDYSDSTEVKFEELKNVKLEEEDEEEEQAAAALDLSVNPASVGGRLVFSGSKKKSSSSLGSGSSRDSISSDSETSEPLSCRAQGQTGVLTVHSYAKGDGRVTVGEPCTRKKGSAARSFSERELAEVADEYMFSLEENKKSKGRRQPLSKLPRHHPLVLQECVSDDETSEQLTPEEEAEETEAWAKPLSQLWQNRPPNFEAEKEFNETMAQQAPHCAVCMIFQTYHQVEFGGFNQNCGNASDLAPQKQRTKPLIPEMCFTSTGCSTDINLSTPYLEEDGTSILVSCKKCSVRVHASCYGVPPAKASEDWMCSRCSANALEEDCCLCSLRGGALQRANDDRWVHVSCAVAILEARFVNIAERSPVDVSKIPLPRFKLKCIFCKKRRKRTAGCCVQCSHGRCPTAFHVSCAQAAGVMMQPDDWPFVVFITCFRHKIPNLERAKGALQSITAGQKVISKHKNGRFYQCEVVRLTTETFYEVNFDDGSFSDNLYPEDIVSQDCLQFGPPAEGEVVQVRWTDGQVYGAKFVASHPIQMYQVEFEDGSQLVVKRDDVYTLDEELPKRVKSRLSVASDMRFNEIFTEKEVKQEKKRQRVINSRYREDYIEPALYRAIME
Test: MALDI-TOF MS demethylation assay with full-length KDM4A
Assay type: biochemical
Details: CP2 10 µM; H3K9me3 and H3K36me3 peptides 10 µM; 1 h 37°C
From the text: N-terminally Hexa-His-tagged KDM4A (His-KDM4A1–359) was produced and purified as described. The KDM4A gene encoding for KDM4A protein (residues 1-359) was cloned into the pNIC-Bio3 plasmid, which incorporates a C-terminal AviTag and expressed with biotin supplement in BL21(DE3)Rosetta co-transfected with pCDF-BirA[32]. His-KDM4A with biotin (His-KDM4A-Bio) was purified using nickel affinity chromatography. Complete (>95%) biotinylation of KDM4A was confirmed using electrospray ionization–MS (Waters Micromass LCT Premier). […] The full-length FLAG-tagged KDM4A1–1,064 (ref. [15]) was produced in HEK293T cells. HEK293T cells were grown to 80% confluency in DMEM medium (Sigma) supplemented with Glutamax (Life Technologies), 10% fetal bovine serum (FBS, Sigma). FLAG-tagged KDM4A was transfected using polyethyleneimine. Cells were harvested after 48 h, washed with PBS (Sigma) and lysed (45 min, 4 °C) in 50 mM HEPES (pH 7.5), 150 mM NaCl buffer containing protease inhibitor cocktail (Sigma), 10 μM DNase (Sigma) and 0.1% NP40 (Roche). FLAG-tagged KDM4A was purified by immunoprecipitation using anti-FLAG M2 magnetic beads (Sigma) and washed in 50 mM HEPES (pH 7.5) 150 mM NaCl. The final wash was performed in 50 mM HEPES (pH 7.5) and the resin was used as an enzyme source for the full-length KDM4A.
KDM4A in vitro. […]
(pH 7.5) at 37°C for 1 h. The assay products were analysed by MALDI-TOF MS. […]

DYVYNTRSGWRWYTC [CP2]
Inhibition of demethylation by full-length KDM4A: inhibits
